Among the data in patent publication US6703388B2, “Nitrogen-containing tricyclic compounds and drugs containing the same” (Eisai Co., Ltd., priority 1996, dated 2004) are IC50 values, retold here.

SMILES strings stand for the structures. Read-outs that look alike come from different tables or passages of the source. Where only a bound is given, the exact number is not on record here.

For one experiment, the system named is RBL-2H3 cells. In words: Inhibition of serotonin liberation from IgE-sensitized RBL-2H3 cells after antigen stimulation. The experiment is classed as cell-based, rat. The following applies: Rattus norvegicus; [3H]-serotonin release, IgE-sensitized RBL-2H3 cells, antigen stimulation; read-out: IC50 (μM) in serotonin liberation from RBL-2H3 cells. An outline of the steps: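 Rat RBL-2H3 cells labelled with [3H]-serotonin and sensitized with IgE simultaneously, incubated with compound, then challenged with specific antigen. Inhibition derived from [3H]-serotonin released into medium relative to release without compound.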

The test system of a further experiment is human basophils. In words: Inhibition of mediator (histamine, peptide leukotriene) liberation from human basophils stimulated with mite antigen. The format is cell-based. The following applies: enzyme immunoassay. Here is the method:
6 ml of 6% dextran (for separating leukocytes, having a high molecular weight) was added to 20 ml of heparinized blood. After stirring well, the resulting mixture was allowed to stand at 37° C. for 30 min and thus erythrocytes were precipitated. The upper layer was taken up and phosphate buffered saline (D-PBS) was added thereto followed by centrifugation at 185 g for 8 minutes to give a crude leukocyte fraction. These cells were subjected to hypotonic hematolysis and then suspended in D-PBS(+) containing 0.1%-BSA. The resulting suspension was used in the subsequent experiment as the leukocyte fraction containing basophils. 0.4 ml of this cell suspension was preliminarily heated to 37° C. for 5 min and then 0.05 ml of a specimen solution was added thereto followed by a pretreatment at 37° C. for 15 min. Next, 0.05 ml of a mite antigen solution was added thereto to induce an antigen-antibody reaction. After 10 min, the reaction was ceased by ice-cooling. Then the reaction mixture was centrifuged at 185 g for 10 min and histamine and peptide leukotrienes in the resulting supernatant were determined by using enzyme immunoassay kits. From the results of the assay, the activities of the acridone derivatives of inhibiting the liberation of histamine and peptide leukotriene were determined.

The mark [1] stands for this setting: histamine, read-out: IC50 (μM) in mediator liberation from human basophils: histamine.
[2] abbreviates: peptide leukotriene, read-out: IC50 (μM) in mediator liberation from human basophils: leukotriene.

For `Cc1ccc2c(c1C)N(CCCNCc1ccc(C#N)s1)c1ccccc1[S+]2[O-]` (stereo not drawn) [Example 58], the IC50 in the experiment with RBL-2H3 cells was 2 µM; in the experiment with human basophils (setting [1]) it was 10 to 30 µM; in the experiment on human basophils (setting [2]), 10 to 30 µM.
As for `COc1ccsc1CNCCCN1c2ccccc2[S+]([O-])c2ccc(C)c(C)c21` (stereo not drawn) [Example 66], the IC50 was 0.5 µM with RBL-2H3 cells, under 3 µM in the experiment with human basophils (setting [1]) and under 3 µM in the experiment with human basophils (setting [2]).
For the compound `COc1ccsc1CNCCCN1c2ccc(Cl)cc2[S+]([O-])c2ccc(C)c(C)c21` (stereo not drawn) [Example 81], the IC50 is 1 µM with RBL-2H3 cells, 10 to 30 µM in the experiment on human basophils (setting [1]) and 3 to 10 µM in the experiment with human basophils (setting [2]).
In the case of `COCc1cccc(CNCCN2c3ccccc3[S+]([O-])c3ccc(C)c(C)c32)c1O` (stereo not drawn) [Example 151], the IC50 in the experiment with RBL-2H3 cells is 2 µM; with human basophils (setting [1]) it was 10 to 30 µM; with human basophils (setting [2]) it was 3 to 10 µM.
For `Cc1ccc2c(c1C)N(CCCN(C)Cc1cccc(C)c1O)c1ccccc1[S+]2[O-]` (stereo not drawn) [Example 168] the same measures were 2 µM, under 10 µM and under 10 µM.
Take `Cc1ccc2c(c1C)N(CCCNCc1ccccc1)c1cc(C#N)ccc1[S+]2[O-]` (stereo not drawn) [Example 90]: the IC50 is 3 µM in the experiment with RBL-2H3 cells, 30 to 100 µM in the experiment with human basophils (setting [1]) and 10 to 30 µM in the experiment with human basophils (setting [2]).
For `Cc1ccc2c(c1C)N(CCNCc1cc(Cl)cc(Cl)c1O)c1ccccc1[S+]2[O-]` (stereo not drawn) [Example 146] the same measures were 3 µM, under 10 µM and under 10 µM.
The matching figures for `Cc1ccc2c(c1C)N(CCCNCc1cc(O)ccc1O)c1ccccc1[S+]2[O-]` (stereo not drawn) [Example 33]: 1 µM, 10 to 30 µM and 10 µM.
Consider `Cc1ccc2c(c1C)N(CCCN(Cc1ccccc1O)CC(O)CO)c1ccccc1[S+]2[O-]` (stereo not drawn) [Example 137], for which the IC50 was 1 µM in the experiment on RBL-2H3 cells, 10 to 30 µM in the experiment on human basophils (setting [1]) and 3 µM in the experiment with human basophils (setting [2]).
Take `Cc1ccc2c(c1C)N(CCCNCc1ccccc1)c1ccc(Cl)cc1[S+]2[O-]` (stereo not drawn) [Example 80]: the IC50 was 1 µM in the experiment on RBL-2H3 cells, 10 µM in the experiment on human basophils (setting [1]) and 3 to 10 µM in the experiment on human basophils (setting [2]).
For `Cc1ccc2c(c1C)N(CCCNCc1cccc(Br)c1O)c1ccccc1[S+]2[O-]` (stereo not drawn) [Example 30] the same measures were 2 µM, 3 to 10 µM and under 3 µM.
As to `Cc1ccc2c(c1C)N(Cc1cccc(CN3CCN(Cc4ccccc4)CC3)n1)c1ccccc1[S+]2[O-]` (stereo not drawn) [Example 122], the IC50 in the experiment with RBL-2H3 cells was 3 µM; with human basophils (setting [1]), 10 to 30 µM; in the experiment on human basophils (setting [2]) it was under 10 µM.
In the case of `Cc1ccc2c(c1C)N(CCN(C)Cc1cccc(CO)c1O)c1ccccc1[S+]2[O-]` (stereo not drawn) [Example 185], the IC50 with RBL-2H3 cells is 0.5 µM; in the experiment with human basophils (setting [1]), 10 to 30 µM; with human basophils (setting [2]) it was under 3 µM.
The matching figures for `Cc1ccc2c(c1C)N(CCCNC(C)c1ccccc1O)c1ccccc1[S+]2[O-]` (stereo not drawn) [Example 102]: 1 µM, 30 µM and 10 to 30 µM.
For `Cc1ccc2c(c1C)N(CCN(CCO)Cc1ccccc1)c1ccccc1[S+]2[O-]` (stereo not drawn) [Example 193] the same measures were 2 µM, 30 µM and 10 µM.
The matching figures for `Cc1ccc2c(c1C)N(CCCN(C)Cc1c(O)ccc(C)c1O)c1ccccc1[S+]2[O-]` (stereo not drawn) [Example 174]: 0.5 µM, 10 to 30 µM and 10 µM.
As to `COc1ccccc1CNCCN1c2ccccc2[S+]([O-])c2ccc(C)c(C)c21` (stereo not drawn) [Example 155], the IC50 in the experiment on RBL-2H3 cells is 4 µM; in the experiment with human basophils (setting [1]), 30 to 100 µM; in the experiment on human basophils (setting [2]), 10 to 30 µM.
With `COc1ccc(CNCCCN2c3ccccc3[S+]([O-])c3ccc(C)c(C)c32)o1` (stereo not drawn) [Example 64], the IC50 was 3 µM with RBL-2H3 cells, 3 to 10 µM in the experiment with human basophils (setting [1]) and 3 µM in the experiment on human basophils (setting [2]).
On to `Cc1ccc2c(c1C)N(CCCN1CCc3ccccc3C1)c1ccccc1[S+]2[O-]` (stereo not drawn) [Example 108], for which the IC50 is 2 µM with RBL-2H3 cells, 30 µM with human basophils (setting [1]) and 10 to 30 µM with human basophils (setting [2]).
On to `Cc1ccc2c(c1C)N(CCNCc1cccc(CO)c1O)c1ccccc1[S+]2[O-]` (stereo not drawn) [Example 152], for which the IC50 with RBL-2H3 cells was 1 µM; in the experiment with human basophils (setting [1]), 3 to 10 µM; in the experiment on human basophils (setting [2]), under 3 µM.
The matching figures for `Cc1ccc2c(c1C)N(CCCNCc1ccccc1)c1cccc(Cl)c1[S+]2[O-]` (stereo not drawn) [Example 82]: 2 µM, 3 to 10 µM and 10 to 30 µM.
For `Cc1ccc2c(c1C)N(CCCN(C)Cc1cc(O)ccc1O)c1ccccc1[S+]2[O-]` (stereo not drawn) [Example 171] the same measures were 0.8 µM, 3 to 10 µM and 3 to 10 µM.
The matching figures for `COc1cccc(OC)c1CNCCCN1c2ccccc2[S+]([O-])c2ccc(C)c(C)c21` (stereo not drawn) [Example 45]: 1 µM, 3 to 10 µM and 3 µM.
In the case of `Cc1ccc2c(c1C)N(CCN(C)Cc1cccc(C)c1O)c1ccccc1[S+]2[O-]` (stereo not drawn) [Example 181], the IC50 was 2 µM in the experiment with RBL-2H3 cells, 10 to 30 µM in the experiment with human basophils (setting [1]) and under 10 µM in the experiment on human basophils (setting [2]).
In the case of `COc1csc(CNCCCN2c3ccccc3[S+]([O-])c3ccc(C)c(C)c32)c1` (stereo not drawn) [Example 73], the figures for the IC50 in the experiment with RBL-2H3 cells, in the experiment on human basophils (setting [1]) and in the experiment on human basophils (setting [2]) were 2 µM, 3 to 10 µM and 3 to 10 µM, respectively.
As to `Cc1ccc2c(c1)N(CCCN(C)Cc1ccccc1O)c1c(ccc(C)c1C)[S+]2[O-]` (stereo not drawn) [Example 188], the IC50 in the experiment with RBL-2H3 cells is 1 µM; with human basophils (setting [1]), 10 µM; in the experiment on human basophils (setting [2]), 3 to 10 µM.
Turning to `Cc1ccc2c(c1C)N(CCCNCc1cccc(C)c1O)c1ccccc1[S+]2[O-]` (stereo not drawn) [Example 26], the IC50 with RBL-2H3 cells is 2 µM; with human basophils (setting [1]) it was under 10 µM; in the experiment with human basophils (setting [2]), under 10 µM.
For `COc1ccsc1CNCCCN1c2cc(Cl)ccc2[S+]([O-])c2ccc(C)c(C)c21` (stereo not drawn) [Example 85], the IC50 with RBL-2H3 cells is 3 µM; in the experiment on human basophils (setting [1]), 3 µM; in the experiment with human basophils (setting [2]), 10 to 30 µM.
Regarding `Cc1ccc2c(c1C)N(CCNCc1cccc(C)c1O)c1ccccc1[S+]2[O-]` (stereo not drawn) [Example 145], the IC50 is 6 µM in the experiment on RBL-2H3 cells, 10 to 30 µM in the experiment with human basophils (setting [1]) and under 10 µM with human basophils (setting [2]).
The matching figures for `COCOc1ccccc1CNCCCN1c2ccccc2[S+]([O-])c2ccc(C)c(C)c21` (stereo not drawn) [Example 44]: 1 µM, 10 to 30 µM and 10 µM.
For `Cc1ccc2c(c1C)N(CCCNCc1c(O)ccc(C)c1O)c1ccccc1[S+]2[O-]` (stereo not drawn) [Example 37] the same measures were 2 µM, 10 to 30 µM and 3 to 10 µM.
The matching figures for `Cc1ccc2c(c1C)N(CCNCc1cccc(C(F)(F)F)c1O)c1ccccc1[S+]2[O-]` (stereo not drawn) [Example 163]: 3 µM, 10 to 30 µM and 10 µM.
For the compound `COc1cccc(CN(C)CCCN2c3ccccc3[S+]([O-])c3ccc(C)c(C)c32)c1O` (stereo not drawn) [Example 169], the IC50 in the experiment with RBL-2H3 cells was 0.5 µM; in the experiment with human basophils (setting [1]), 30 to 100 µM; in the experiment on human basophils (setting [2]), 10 to 30 µM.
For `COc1cccc(OC)c1CN(C)CCCN1c2ccccc2[S+]([O-])c2ccc(C)c(C)c21` (stereo not drawn) [Example 170], the IC50 in the experiment with RBL-2H3 cells was 0.5 µM; in the experiment with human basophils (setting [1]), 10 to 30 µM; in the experiment on human basophils (setting [2]), 3 µM.
